Test results from patent US8309546B2, “Morpholinopurine derivatives” (Daiichi Sankyo Company, Limited, priority 2008, dated 2012).

How the values were obtained:
[1] = system: human ovary cancer cell strain IGROV1; experiment: Cell growth inhibition test (MTT), IGROV1; type: cell-based; details: IGROV-1, 72 h, IGROV1, 3 days culture, read-out: concentration exhibiting anti-cell effect (GI50)
How it was run: (§1)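 MTT read-out at 540 nm after 4 h formazan formation gives living cell count following 3-day compound exposure at 37° C, 5% CO2. Seeding: 5000 AN3CA, 1000 IGROV1, 5000 HT29 cells/well. Growth rate T/C % = 100×[(B−C)/(A−C)], with C taken before dosing; GI50 = concentration giving 50% growth.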

[2] = system: human colon cancer cell strain HT29; experiment: Cell growth inhibition test (MTT), HT29; type: cell-based; details: HT-29, 72 h, HT29, 3 days culture, read-out: concentration exhibiting anti-cell effect (GI50)
How it was run: as §1

[3] = target: T1, human mTOR (His-tagged mTOR (1362C)) (Homo sapiens, UniProt P42345); experiment: mTOR kinase activity inhibition assay; type: biochemical; details: HTRF, read-out: IC50 against mTOR
T1 construct: the 1362 to 2549 amino acid portion on the C terminus side of human mTOR; His tag (N); made in house
T1 sequence (P42345 1362-2549): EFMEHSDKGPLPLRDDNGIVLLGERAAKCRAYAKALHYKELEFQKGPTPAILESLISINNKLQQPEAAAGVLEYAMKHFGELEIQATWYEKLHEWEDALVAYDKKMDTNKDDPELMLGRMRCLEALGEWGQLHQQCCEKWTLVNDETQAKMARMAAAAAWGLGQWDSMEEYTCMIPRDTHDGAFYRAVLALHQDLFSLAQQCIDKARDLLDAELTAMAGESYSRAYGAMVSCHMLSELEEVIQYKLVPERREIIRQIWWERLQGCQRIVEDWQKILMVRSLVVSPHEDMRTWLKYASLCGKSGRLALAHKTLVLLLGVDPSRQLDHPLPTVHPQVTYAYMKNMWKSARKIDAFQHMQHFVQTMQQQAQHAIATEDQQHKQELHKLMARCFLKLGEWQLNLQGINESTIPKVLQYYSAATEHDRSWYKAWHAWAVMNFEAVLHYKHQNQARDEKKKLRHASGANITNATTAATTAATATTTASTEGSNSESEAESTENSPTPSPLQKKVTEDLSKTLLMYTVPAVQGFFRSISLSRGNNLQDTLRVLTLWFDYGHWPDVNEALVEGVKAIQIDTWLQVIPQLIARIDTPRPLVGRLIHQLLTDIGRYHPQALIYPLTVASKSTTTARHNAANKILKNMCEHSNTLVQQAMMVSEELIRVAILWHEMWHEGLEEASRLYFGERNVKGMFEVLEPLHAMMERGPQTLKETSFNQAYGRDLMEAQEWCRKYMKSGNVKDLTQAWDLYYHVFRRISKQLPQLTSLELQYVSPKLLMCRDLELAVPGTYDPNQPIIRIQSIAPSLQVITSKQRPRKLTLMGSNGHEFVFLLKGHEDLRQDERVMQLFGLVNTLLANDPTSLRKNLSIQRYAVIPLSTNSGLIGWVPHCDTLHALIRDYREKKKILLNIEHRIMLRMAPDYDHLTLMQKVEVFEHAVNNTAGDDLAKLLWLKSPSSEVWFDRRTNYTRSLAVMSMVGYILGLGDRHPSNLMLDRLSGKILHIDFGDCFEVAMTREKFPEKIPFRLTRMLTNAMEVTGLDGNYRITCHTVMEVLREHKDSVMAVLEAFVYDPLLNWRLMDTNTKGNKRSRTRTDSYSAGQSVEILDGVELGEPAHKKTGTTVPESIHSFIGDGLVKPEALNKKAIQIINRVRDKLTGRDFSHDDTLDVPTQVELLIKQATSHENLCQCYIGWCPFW
How it was run: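 Crude His-tagged mTOR (aa 1362–2549) from stable HEK293 cells, with 8 μg/ml biotinylated peptide in 50 mM HEPES pH 7.5, 20 mM MnCl2; compound diluted in 20 μM ATP solution, reaction 3 h at room temperature. Phospho-peptide detected by HTRF (anti-phospho-S6K Thr389 cryptate/streptavidin-XL665, overnight at 4°C), 665/620 nm ratio. IC50 derived from curve fit of % inhibition.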

[4] = system: human endometrial cancer cell strain AN3CA; experiment: Cell growth inhibition test (MTT), AN3CA; type: cell-based; details: AN3-CA, 72 h, 3 days culture, read-out: concentration exhibiting anti-cell effect (GI50)
How it was run: as §1

Compound	GI50 [1] [µM]	GI50 [2] [µM]	IC50 [3] [µM]	GI50 [4] [µM]
CC(C)Cn1c(N2CCN(C(=O)CO)CC2)nc2c(N3CCOC[C@@H]3C)nc(-c3cnc(N)nc3)nc21 [Example 130, 2-(4-{2-(2-Aminopyrimidin-5-yl)-9-isobutyl-6-[(3S)-3-methylmorpholin-4-yl]-9H-purin-8-yl}piperazin-1-yl)-2-oxoethanol]	≤ 5	≤ 5	< 0.01	≤ 5
C[C@H]1CN(c2nc3c(N4CCOCC4)nc(-c4cnc(N)nc4)nc3n2CC(F)(F)F)CCN1C=O [Example 111, (2S)-4-[2-(2-Aminopyrimidin-5-yl)-6-morpholin-4-yl-9-(2,2,2-trifluoroethyl)-9H-purin-8-yl]-2-methylpiperazine-1-carboaldehyde]	≤ 5	≤ 5	< 0.01	≤ 5
CC(C)Cn1c(N2CCN(C(=O)[C@H](C)O)[C@H](C)C2)nc2c(N3CCOCC3)nc(-c3cnc(N)nc3)nc21 [Example 103, (2S)-1-{(2R)-4-[2-(2-Aminopyrimidin-5-yl)-9-isobutyl-6-morpholin-4-yl-9H-purin-8-yl]-2-methylpiperazin-1-yl}-1-oxopropan-2-ol]	≤ 5	≤ 5	0.01 to 0.03	≤ 5
C[C@H](O)C(=O)N1CCN(c2nc3c(N4CCOCC4)nc(-c4cnc(N)nc4)nc3n2CC(F)(F)F)CC1 [Example 68, (2S)-1-{4-[2-(2-Aminopyrimidin-5-yl)-6-morpholin-4-yl-9-(2,2,2-trifluoroethyl)-9H-purin-8-yl]piperazin-1-yl}-1-oxopropan-2-ol]	≤ 5	≤ 5	< 0.01	≤ 5
C[C@H]1CN(c2nc3c(N4CCOCC4)nc(-c4cnc(N)nc4)nc3n2CC(F)(F)F)CCN1S(C)(=O)=O [Example 62, 5-{8-[(3S)-3-Methyl-4-(methylsulfonyl)piperazin-1-yl]-6-morpholin-4-yl-9-(2,2,2-trifluoroethyl)-9H-purin-2-yl}pyrimidin-2-amine]	≤ 5	≤ 5	< 0.01	≤ 5
CNc1ncc(-c2nc(N3CCOCC3)c3nc(N4CCN(S(C)(=O)=O)[C@H](C)C4)n(CC(F)(F)F)c3n2)cn1 [Example 106, N-Methyl-5-{8-[(3R)-3-methyl-4-(methylsulfonyl)piperazin-1-yl]-6-morpholin-4-yl-9-(2,2,2-trifluoroethyl)-9H-purin-2-yl}pyrimidin-2-amine]	≤ 5	≤ 5	< 0.01	≤ 5
CNc1ncc(-c2nc(N3CCOCC3)c3nc(N4CCN(C(C)=O)CC4)n(CC(F)(F)F)c3n2)cn1 [Example 134, 5-[8-(4-Acetylpiperazin-1-yl)-6-morpholin-4-yl-9-(2,2,2-trifluoroethyl)-9H-purin-2-yl]-N-methylpyrimidin-2-amine]	≤ 5	≤ 5	< 0.01	≤ 5
CC(=O)N1CCN(c2nc3c(N4CCOCC4)nc(-c4cnc(N)nc4)nc3n2CC(C)C)C[C@@H]1C [Example 101, 5-{8-[(3S)-4-Acetyl-3-methylpiperazin-1-yl]-9-isobutyl-6-morpholin-4-yl-9H-purin-2-yl}pyrimidin-2-amine]	≤ 5	≤ 5	< 0.01	≤ 5
CC(C)Cn1c(N2CCN(C(=O)C[C@H](C)O)CC2)nc2c(N3CCOCC3)nc(-c3cnc(N)nc3)nc21 [Example 82, (2S)-4-{4-[2-(2-Aminopyrimidin-5-yl)-9-isobutyl-6-morpholin-4-yl-9H-purin-8-yl]piperazin-1-yl}-4-oxobutan-2-ol]	≤ 5	≤ 5	0.01 to 0.03	≤ 5
Cc1nc(N)ncc1-c1nc(N2CCOCC2)c2nc(N3CCN(S(C)(=O)=O)CC3)n(CC3CC3)c2n1 [Example 6, 5-{9-(Cyclopropylmethyl)-8-[4-(methylsulfonyl)piperazin-1-yl]-6-morpholin-4-yl-9H-purin-2-yl}-4-methylpyrimidin-2-amine]	≤ 5	≤ 5	0.1 to 0.5	≤ 5
CC(C)Cn1c(N2CCN(S(C)(=O)=O)[C@H](C)C2)nc2c(N3CCOCC3)nc(-c3cnc(N)nc3)nc21 [Example 54, 5-{9-Isobutyl-8-[(3R)-3-methyl-4-(methylsulfonyl)piperazin-1-yl]-6-morpholin-4-yl-9H-purin-2-yl}pyrimidin-2-amine]	≤ 5	≤ 5	0.03 to 0.1	≤ 5
CC(C)Cn1c(N2CCN(C=O)[C@@H](C)C2)nc2c(N3CCOCC3)nc(-c3cnc(N)nc3)nc21 [Example 102, (2S)-4-[2-(2-Aminopyrimidin-5-yl)-9-isobutyl-6-morpholin-4-yl-9H-purin-8-yl]-2-methylpiperazine-1-carboaldehyde]	≤ 5	≤ 5	< 0.01	≤ 5
C[C@@H]1CN(c2nc3c(N4CCOCC4)nc(-c4cnc(N)nc4)nc3n2CC2CC2)CCN1C(=O)[C@@H](C)O [Example 114, (2R)-1-{(2R)-4-[2-(2-Aminopyrimidin-5-yl)-9-(cyclopropylmethyl)-6-morpholin-4-yl-9H-purin-8-yl]-2-methylpiperazin-1-yl}-1-oxopropan-2-ol]	≤ 5	≤ 5	0.01 to 0.03	≤ 5

Next, values leading:

GI50 [1] [µM]	GI50 [2] [µM]	IC50 [3] [µM]	GI50 [4] [µM]	Compound
≤ 5	≤ 5	< 0.01	≤ 5	CNc1ncc(-c2nc(N3CCOCC3)c3nc(N4CCN(C(C)=O)[C@H](C)C4)n(CC(F)(F)F)c3n2)cn1 [Example 108, 5-{8-[(3R)-4-Acetyl-3-methylpiperazin-1-yl]-6-morpholin-4-yl-9-(2,2,2-trifluoroethyl)-9H-purin-2-yl}-N-methylpyrimidin-2-amine]
≤ 5	≤ 5	0.03 to 0.1	≤ 5	CC(C)Cn1c(N2CCN(C(=O)CN(C)C)CC2)nc2c(N3CCOCC3)nc(-c3cnc(N)nc3)nc21 [Example 55, 5-(8-{4-[(Dimethylamino)acetyl]piperazin-1-yl}-9-isobutyl-6-morpholin-4-yl-9H-purin-2-yl)pyrimidin-2-amine]
≤ 5	≤ 5	0.01 to 0.03	≤ 5	CC(C)Cn1c(N2CCN(C(=O)C[C@@H](C)O)[C@H](C)C2)nc2c(N3CCOCC3)nc(-c3cnc(N)nc3)nc21 [Example 84, (2R)-4-{(2R)-4-[2-(2-Aminopyrimidin-5-yl)-9-isobutyl-6-morpholin-4-yl-9H-purin-8-yl]-2-methylpiperazin-1-yl}-4-oxobutan-2-ol]
≤ 5	≤ 5	0.01 to 0.03	≤ 5	CC(C)Cn1c(N2CCN(C(=O)C[C@H](C)O)[C@H](C)C2)nc2c(N3CCOCC3)nc(-c3cnc(N)nc3)nc21 [Example 86, (2S)-4-{(2R)-4-[2-(2-Aminopyrimidin-5-yl)-9-isobutyl-6-morpholin-4-yl-9H-purin-8-yl]-2-methylpiperazin-1-yl}-4-oxobutan-2-ol]
≤ 5	≤ 5	< 0.01	≤ 5	C[C@H](O)C(=O)N1CCN(c2nc3c(N4CCOCC4)nc(-c4cnc(N)nc4)nc3n2CC(F)(F)F)C[C@H]1C [Example 110, (2S)-1-{(2R)-4-[2-(2-Aminopyrimidin-5-yl)-6-morpholin-4-yl-9-(2,2,2-trifluoroethyl)-9H-purin-8-yl]-2-methylpiperazin-1-yl}-1-oxopropan-2-ol]
≤ 5	≤ 5	0.01 to 0.03	≤ 5	C[C@H](O)C(=O)N1CCN(c2nc3c(N4CCOCC4)nc(-c4cnc(N)nc4)nc3n2CC2CC2)C[C@@H]1C [Example 92, (2S)-1-{(2S)-4-[2-(2-Aminopyrimidin-5-yl)-9-(cyclopropylmethyl)-6-morpholin-4-yl-9H-purin-8-yl]-2-methylpiperazin-1-yl}-1-oxopropan-2-ol]
≤ 5	≤ 5	< 0.01	≤ 5	CC[C@H]1CN(c2nc3c(N4CCOCC4)nc(-c4cnc(N)nc4)nc3n2CC(F)(F)F)CCN1C(C)=O [Example 75, 5-{8-[(3S)-4-Acetyl-3-ethylpiperazin-1-yl]-6-morpholin-4-yl-9-(2,2,2-trifluoroethyl)-9H-purin-2-yl}pyrimidin-2-amine]
≤ 5	≤ 5	< 0.01	≤ 5	CC(C)Cn1c(N2CCN(C(=O)C[C@H](C)O)[C@@H](C)C2)nc2c(N3CCOCC3)nc(-c3cnc(N)nc3)nc21 [Example 85, (2S)-4-{(2S)-4-[2-(2-Aminopyrimidin-5-yl)-9-isobutyl-6-morpholin-4-yl-9H-purin-8-yl]-2-methylpiperazin-1-yl}-4-oxobutan-2-ol]
≤ 5	≤ 5	< 0.01	≤ 5	CC(=O)N1CCN(c2nc3c(N4CCOCC4)nc(-c4cnc(N)nc4)nc3n2CC2CC2)C[C@@H]1C [Example 96, 5-{8-[(3S)-4-Acetyl-3-methylpiperazin-1-yl]-9-(cyclopropylmethyl)-6-morpholin-4-yl-9H-purin-2-yl}pyrimidin-2-amine]
